PubChem BioAssay (NCI)
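Protocol summary: plate cells (96-well), add compound at 5 concentrations, incubate 48 h, interpolate endpoints linearly. The concentration for 50% growth inhibition is given as GI50. At the TGI there is no net growth.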

Experiments:
Assay in all cases: growth of human tumour cells (NCI), 48 h
[1] = tested on: U251 CNS
[2] = tested on: A549 NSCLC
[3] = tested on: UACC-62 melanoma
[4] = tested on: RXF 393 renal
[5] = tested on: ACHN renal
[6] = tested on: DU-145 prostate
[7] = tested on: 786-0 renal
[8] = tested on: UO-31 renal
[9] = tested on: UACC-257 melanoma
[10] = tested on: SK-MEL-5 melanoma
[11] = tested on: M14 melanoma
[12] = tested on: HT29 colon
[13] = tested on: LOX IMVI melanoma
[14] = tested on: OVCAR-8 ovarian
[15] = tested on: SK-OV-3 ovarian
[16] = tested on: MDA-MB-435
[17] = tested on: HOP-92 NSCLC
[18] = tested on: NCI-H460 lung
[19] = tested on: SN12C renal
[20] = tested on: RPMI-8226 leukemia
[21] = tested on: NCI-H522 lung
[22] = tested on: OVCAR-4 ovarian
[23] = tested on: COLO 205 colon
[24] = tested on: SR leukemia
[25] = tested on: MALME-3M melanoma
[26] = tested on: K-562 leukemia
[27] = tested on: NCI-H23 lung
[28] = tested on: IGROV1 ovarian
[29] = tested on: HOP-62 NSCLC
[30] = tested on: SK-MEL-28 melanoma
[31] = tested on: SF-539 CNS
[32] = tested on: EKVX NSCLC
[33] = tested on: MDA-MB-231 breast
[34] = tested on: T-47D breast
[35] = tested on: KM12 colon
[36] = tested on: PC-3 prostate
[37] = tested on: OVCAR-3 ovarian
[38] = tested on: HL-60(TB) leukemia
[39] = tested on: CAKI-1 renal
[40] = tested on: A498 renal
[41] = tested on: MOLT-4 leukemia
[42] = tested on: TK-10 renal
[43] = tested on: SW-620 colon
[44] = tested on: OVCAR-5 ovarian
[45] = tested on: CCRF-CEM leukemia
[46] = tested on: SK-MEL-2 melanoma
[47] = tested on: SNB-19 CNS
[48] = tested on: BT-549 breast
[49] = tested on: HS 578T breast
[50] = tested on: NCI/ADR-RES ovarian
[51] = tested on: SF-295 CNS
[52] = tested on: HCT-116 colon
[53] = tested on: SF-268 CNS
[54] = tested on: SNB-75 CNS
[55] = tested on: HCC-2998 colon
[56] = tested on: NCI-H226 lung
[57] = tested on: HCT-15 colon
[58] = tested on: MCF7 breast

Compound: C=C1CCC2C3(C)COC(c4ccccc4Br)OC3CCC2(C)C1C/C=C1/C(=O)OCC1OC(C)=O (stereo unspecified)
- GI50 [1]: 1220 nM
- TGI [1]: 2460 nM
- GI50 [2]: 2060 nM
- TGI [2]: 5.26 µM
- GI50 [3]: 1420 nM
- TGI [3]: 2860 nM
- GI50 [4]: 1540 nM
- TGI [4]: 2960 nM
- GI50 [5]: 1600 nM
- TGI [5]: 2960 nM
- GI50 [6]: 1580 nM
- TGI [6]: 2990 nM
- GI50 [7]: 1630 nM
- TGI [7]: 2980 nM
- GI50 [8]: 1340 nM
- TGI [8]: 2720 nM
- GI50 [9]: 1570 nM
- TGI [9]: 2990 nM
- GI50 [10]: 1600 nM
- TGI [10]: 2980 nM
- GI50 [11]: 1530 nM
- TGI [11]: 2860 nM
- GI50 [12]: 804 nM
- TGI [12]: 2370 nM
- GI50 [13]: 422 nM
- TGI [13]: 826 nM
- GI50 [14]: 584 nM
- TGI [14]: 1800 nM
- GI50 [15]: 2850 nM
- TGI [15]: 6.78 µM
- GI50 [16]: 1480 nM
- TGI [16]: 3.5 µM
- GI50 [17]: 1360 nM
- TGI [17]: 3.02 µM
- GI50 [18]: 1740 nM
- TGI [18]: 3.29 µM
- GI50 [19]: 1360 nM
- TGI [19]: 3.28 µM
- GI50 [20]: 645 nM
- TGI [20]: 6.52 µM
- GI50 [21]: 604 nM
- TGI [21]: 2030 nM
- GI50 [22]: 1430 nM
- TGI [22]: 2830 nM
- GI50 [23]: 1660 nM
- TGI [23]: 3.2 µM
- GI50 [24]: 215 nM
- TGI [24]: 706 nM
- GI50 [25]: 1920 nM
- TGI [25]: 4.12 µM
- GI50 [26]: 396 nM
- TGI [26]: 4.4 µM
- GI50 [27]: 1590 nM
- TGI [27]: 3.17 µM
- GI50 [28]: 1150 nM
- TGI [28]: 2480 nM
- GI50 [29]: 1940 nM
- TGI [29]: 3.46 µM
- GI50 [30]: 1760 nM
- TGI [30]: 3.15 µM
- GI50 [31]: 1530 nM
- TGI [31]: 2860 nM
- GI50 [32]: 2550 nM
- TGI [32]: 10.1 µM
- GI50 [33]: 1470 nM
- TGI [33]: 3.16 µM
- GI50 [34]: 1080 nM
- TGI [34]: 2770 nM
- GI50 [35]: 1550 nM
- TGI [35]: 3.12 µM
- GI50 [36]: 1630 nM
- TGI [36]: 3.76 µM
- GI50 [37]: 932 nM
- TGI [37]: 2470 nM
- GI50 [38]: 708 nM
- TGI [38]: 2980 nM
- GI50 [39]: 2400 nM
- TGI [39]: 6.46 µM
- GI50 [40]: 1600 nM
- TGI [40]: 3.91 µM
- GI50 [41]: 821 nM
- TGI [41]: 2910 nM
- GI50 [42]: 1910 nM
- TGI [42]: 3.67 µM
- GI50 [43]: 402 nM
- TGI [43]: 1300 nM
- GI50 [44]: 1850 nM
- TGI [44]: 3.28 µM
- GI50 [45]: 381 nM
- TGI [45]: 3.96 µM
- GI50 [46]: 1720 nM
- TGI [46]: 3.4 µM
- GI50 [47]: 2250 nM
- TGI [47]: 5.85 µM
- GI50 [48]: 1700 nM
- TGI [48]: 3.71 µM
- GI50 [49]: 1890 nM
- TGI [49]: 4.65 µM
- GI50 [50]: 1180 nM
- TGI [50]: 3.12 µM
- GI50 [51]: 1820 nM
- TGI [51]: 4.57 µM
- GI50 [52]: 289 nM
- TGI [52]: 751 nM
- GI50 [53]: 1650 nM
- TGI [53]: 3.01 µM
- GI50 [54]: 1170 nM
- TGI [54]: 2460 nM
- GI50 [55]: 1730 nM
- TGI [55]: 3.31 µM
- GI50 [56]: 1640 nM
- TGI [56]: 3.42 µM
- GI50 [57]: 730 nM
- TGI [57]: 2250 nM
- GI50 [58]: 620 nM
- TGI [58]: 2000 nM
